Data as given in US20250243407A1, “LIQUID CRYSTAL COMPOSITION, OPTICALLY ANISOTROPIC FILM, OPTICAL FILM, POLARIZING PLATE, IMAGE DISPLAY APPARATUS, AND POLYMERIZABLE COMPOUND” (FUJIFILM Corporation, priority 2022, published 2025).

Key:
[1] = Solubility: presence or absence of precipitation over time in cyclopentanone/methyl ethyl ketone; type: physicochemical; details: 50 mg, cyclopentanone/methyl ethyl ketone 3/1 by weight, solid content 30 wt %, dissolved at 60° C., cooled to room temperature (25° C.), visual precipitation over time
Method: 50 mg of each of the liquid crystal compositions prepared in a 1.5 mL sample bottle was weighed, and a solvent (mixture of cyclopentanone/methyl ethyl ketone at a weight ratio of 3/1) was added thereto until the solid content was 30 wt % ([…]).
Next, the mixture was heated to 60° C. and stirred to be dissolved, cooled to room temperature (25° C.), and the presence or absence of precipitation was visually confirmed over time after cooling and evaluated according to the following standard.
C: precipitation occurred within 24 hours at room temperature.

[2] = Liquid crystallinity: phase transition temperature measured using a polarization microscope; type: physicochemical
Method: A phase transition temperature of the prepared liquid crystal composition was measured using a polarization microscope.

Liquid crystallinity: phase transition temperature between isotropic liquid (Iso) and crystal (Cr) [2]: Iso 178 Cr ° C.
Compound: C=CC(=O)OCC(C)(C)COC(=O)CCC(=O)OCCc1ccc(OC(=O)C2CCC(C(=O)Oc3c(C(C)(C)C)cc(OC(=O)C4CCC(C(=O)Oc5cc(C(C)(C)C)c(OC(=O)C6CCC(C(=O)Oc7ccc(CCOC(=O)CCC(=O)OCC(C)(C)COC(=O)C=C)cc7)CC6)c6c5SC(=C(C#N)C#N)S6)CC4)c4c3SC(=C(C#N)C#N)S4)CC2)cc1 (centres unmarked) [Comparative Example 1]
Solubility [1]: C (precipitation occurred within 24 hours at room temperature)
